Measurements as given in US9248131B2, “Aquaporin modulators and methods of using them for the treatment of edema and fluid imbalance” (THE ARIZONA BOARD OF REGENTS ON BEHALF OF THE UNIVERSITY OF …, priority 2006, dated 2016).

Legend:
AQP4 = molecular target: T1, AQP4 (Homo sapiens, UniProt P55087); assay: Oocyte swelling assay: water permeability (Pf) of AQP4-expressing oocytes by videomicroscopy, block or % stimulation; format: cell-based; conditions: for AQP-4 effect: % block / antagonist trend: 100 μM, route not stated
T1 construct: expressed in transfected cells; host or cells: Xenopus oocytes
Source text: (§1) A method for screening compounds for their ability to modulate aquaporin activity based on a water permeability assay in Xenopus oocytes expressing aquaporins which is used to identify, assess, and characterize compounds that either block or stimulate the aquaporin channels including AQP1, AQP4 and AQP9 channels.
(§2) Selection rationale and methodology. The ability of compounds, analogs and/or agents to block an aquaporin channel was quantified by videomicroscopic analyses of cross-sectional area of AQP-expressing oocytes as a function of time in a defined osmotic gradient, allowing the calculation of the water permeability factor (Pf), statistical evaluation of significant differences in the rate of water entry, and definition of dose response curves with IC50 values (concentration required for half-maximal block).
(§3) This compound evaluation method has been utilized with AQP1,-4,-5, and -9 channels. Observations of channel stimulation were made using the same assay method, however, the results were reported as % stimulation over control at a given concentration. […] TEA is known as a blocker of K^+ channel subtypes and nicotinic acetylcholine receptors. TEA sensitivity of AQP1 was removed by site-directed mutagenesis of tyrosine 186 to phenylalanine (Y186F) in the outer vestibule of the water pore, and confirmed that the inhibitory action of TEA is not due to nonspecific effects on endogenous channels (Brooks et al., 2000).

AQP1 = molecular target: T2, AQP1 (Homo sapiens, UniProt P29972); assay: Oocyte swelling assay: water permeability (Pf) of AQP1-expressing oocytes, block or % stimulation; format: cell-based; set-up: expressed in transfected cells; host or cells: Xenopus oocytes
T2 sequence (P29972 1-269): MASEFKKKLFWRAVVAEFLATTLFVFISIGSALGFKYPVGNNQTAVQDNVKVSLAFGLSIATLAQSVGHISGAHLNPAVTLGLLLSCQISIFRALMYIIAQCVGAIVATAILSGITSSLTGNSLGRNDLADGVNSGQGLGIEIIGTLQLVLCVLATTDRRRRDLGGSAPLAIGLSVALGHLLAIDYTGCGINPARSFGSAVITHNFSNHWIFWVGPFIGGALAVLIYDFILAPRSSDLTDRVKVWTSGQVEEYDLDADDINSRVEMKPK
Source text: as §1, §2, §3

[1] = ↓ block, ↑ activation, ═ no effect, symbols not defined in the table
[2] = ↓ block, ↑ stimulation, ═ no effect, symbols not defined in the table

T1 sequence (P55087 whole entry, species assumed): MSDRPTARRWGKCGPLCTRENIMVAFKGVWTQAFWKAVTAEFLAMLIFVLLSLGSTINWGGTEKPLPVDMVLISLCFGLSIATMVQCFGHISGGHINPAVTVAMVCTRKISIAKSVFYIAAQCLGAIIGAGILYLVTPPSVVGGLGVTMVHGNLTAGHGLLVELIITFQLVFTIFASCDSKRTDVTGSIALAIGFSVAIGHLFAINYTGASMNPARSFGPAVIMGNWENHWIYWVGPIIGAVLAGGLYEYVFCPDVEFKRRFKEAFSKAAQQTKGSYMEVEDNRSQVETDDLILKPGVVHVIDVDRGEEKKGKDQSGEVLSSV

Question: How did the “AQP-4 effect: % block” value (AQP4; at 10 μM extracellularly) turn out when `CCCCNc1c(Oc2ccccc2)cc(S(=O)(=O)NC)cc1C(=O)OC` was run?
Answer: The value was −40%.

Question: What about the “AQP-4 effect: comparison with bumetanide (in words)” value (AQP4; relative to bumetanide) of the same compound?
Answer: The value was “Improved potency over bumetanide”.

Question: `CCCCNc1cc(C(=O)NCc2cccnc2)cc(S(N)(=O)=O)c1Oc1ccccc1` was tested. Which “AQP-4 effect: % block” value (AQP4; at 10 μM) did it give?
Answer: The value was 50% block at 10 μM.

Question: How did the “AQP-4 effect (in words)” value (AQP4; at 10 μM) turn out when `CCCCNc1cc(C(=O)NCCCN2CCN(C)CC2)cc(S(N)(=O)=O)c1Oc1ccccc1` was run?
Answer: The value was “No Significant effect at 10 μM”.

Question: Which “AQP-4 effect (in words)” value (AQP4; at 10 μM) does the source give for `CCCCNc1cc(C(=O)N2CCN(C)CC2)cc(S(N)(=O)=O)c1Oc1ccccc1` here?
Answer: Its value is “No Significant effect at 10 μM”.

Question: With `CCCCNc1c(Oc2ccccc2)cc(S(N)(=O)=O)cc1C(=O)O` [drawing 94] as the compound, how does the “AQP-4 effect: % block” value (AQP4; at 100 μM) read?
Answer: The value was −35% block at 100 μM.

Question: `CCCCNc1cc(C(=O)NCc2ccccn2)cc(S(N)(=O)=O)c1Oc1ccccc1` was tested. Which “AQP-4 effect (in words)” value (AQP4; at 10 μM) did it give?
Answer: Its value is “No Significant effect at 10 μM”.

Question: Which results are given for `CCCCNc1cc(C(=O)OC)cc(S(N)(=O)=O)c1Oc1ccccc1` [AQP-0001, bumetanide methyl ester]?
Answer: AQP-4 effect: % block (AQP4; 1 μM extracellularly): −30%; AQP-4 effect: potency compared with bumetanide (in words) (AQP4; extracellularly): Improved potency over bumetanide; AQP-4 effect (arrow symbol) (AQP4; [1]): ↓↓

Question: With `CCCCNc1cc(C(=O)N2CCOCC2)cc(S(N)(=O)=O)c1Oc1ccccc1` [drawing 100] as the compound, how does the “AQP-4 effect: % activation” value (AQP4; at 10 μM) read?
Answer: The value was 70% Activation at 10 μM.

Question: With `CCCCNc1c(Oc2ccccc2)cc(S(N)(=O)=O)cc1C(=O)O` [Bumetanide AQP-0000] as the compound, how does the “AQP-4 effect: % block / antagonist trend” value (AQP4) read?
Answer: The value was −35%.

Question: And the “AQP-4 effect (arrow symbol)” value (AQP4; [1])?
Answer: The value was “↓”.

Question: With `CNS(=O)(=O)c1cc(C(=O)OC)c(NCc2ccco2)cc1Cl` [drawing 115] as the compound, how does the “AQP-4 effect (arrow symbol)” value (AQP4; arrow symbols, key not given) read?
Answer: The value was “↑”.

Question: And the “AQP-4 effect (in words)” value (AQP4; at 100 μM)?
Answer: The value was “Significant Agonist Effect”.

Question: And the “AQP-1 effect (arrow symbol)” value (AQP1; arrow symbols, key not given)?
Answer: The value was “↓↓”.

Question: For `O=C(O)c1cc(S(=O)(=O)NCc2ccccc2)c(Cl)cc1NCc1ccco1`, which “AQP-4 effect (arrow symbol)” value (AQP4; arrow symbols, key not given) is on record?
Answer: The value was “═”.

Question: And the “AQP-1 effect (arrow symbol)” value (AQP1; arrow symbols, key not given)?
Answer: Its value is “↓”.

Question: Which results are given for `C=CCNS(=O)(=O)c1cc(C(=O)OC)c(NCc2ccco2)cc1Cl` [drawing 119]?
Answer: AQP-4 effect (arrow symbol) (AQP4; arrow symbols, key not given): (↑)?; AQP-4 effect (in words) (AQP4; at 100 μM): No significant Antagonist Effect; AQP-1 effect (arrow symbol) (AQP1; arrow symbols, key not given): ═

Question: For `CCCCNc1cc(C(=O)N2CCOCC2)cc(S(N)(=O)=O)c1Oc1ccccc1` [AQP-0006], which “AQP-4 effect: % activation” value (AQP4; 10 μM given extracellularly) is on record?
Answer: The value was 70%.

Question: What about the “AQP-4 effect (arrow symbol)” value (AQP4; [1]) of the same compound?
Answer: The value was “↑”.

Question: What does the source list for `COC(=O)c1cc(S(=O)(=O)NCc2ccccc2)c(Cl)cc1NCc1ccco1`?
Answer: AQP-4 effect (arrow symbol) (AQP4; arrow symbols, key not given): ↑; AQP-4 effect (in words) (AQP4; at 100 μM): Significant Agonist Effect; AQP-1 effect (arrow symbol) (AQP1; arrow symbols, key not given): ═

Question: Which results are given for `CCCCNc1cc(C(=O)NCCN2CCN(C)CC2)cc(S(N)(=O)=O)c1Oc1ccccc1` [AQP-0007]?
Answer: AQP-4 effect: % activation (AQP4; 10 μM given extracellularly): 110%; AQP-4 effect (arrow symbol) (AQP4; [1]): ↑↑

Question: With `CNS(=O)(=O)c1cc(C(=O)OC)c(NCc2ccco2)cc1Cl` [AQP-0023, Furosemide methyl ester monomethyl sulfonamide] as the compound, how does the “AQP-4 effect: % agonist effect / agonist trend” value (AQP4; 100 μM given extracellularly) read?
Answer: Its value is −20%.

Question: What about the “AQP-4 effect (arrow symbol)” value (AQP4; [1]) of the same compound?
Answer: Its value is “↑”.

Question: What about the “AQP-1 effect (arrow symbol)” value (AQP1; [2]) of the same compound?
Answer: The value was “↓↓”.

Question: Which “AQP-4 effect (in words)” value (AQP4; at 10 μM) does the source give for `CCCCNc1cc(C(=O)NCCN2CCN(CCN)CC2)cc(S(N)(=O)=O)c1Oc1ccccc1` here?
Answer: The value was “No Significant effect at 10 μM”.

Question: Which results are given for `C=CCNS(=O)(=O)c1cc(C(=O)O)c(NCc2ccco2)cc1Cl`?
Answer: AQP-4 effect (arrow symbol) (AQP4; arrow symbols, key not given): ↑↑; AQP-4 effect (in words) (AQP4; at 100 μM): Significant Agonist Effect; AQP-1 effect (arrow symbol) (AQP1; arrow symbols, key not given): ═

Question: What does the source list for `C=CCNS(=O)(=O)c1cc(C(=O)OC)c(NCc2ccco2)cc1Cl` [AQP-0027]?
Answer: AQP-4 effect: % block / antagonist trend (AQP4): −25%; AQP-4 effect (arrow symbol) (AQP4; [1]): (↓)?; AQP-1 effect (in words) (AQP1; given extracellularly): No significant effect; AQP-1 effect (arrow symbol) (AQP1; [2]): ═

Question: With `CCCCNc1cc(C(=O)NCCN2CCN(C)CC2)cc(S(N)(=O)=O)c1Oc1ccccc1` [drawing 101] as the compound, how does the “AQP-4 effect: % activation” value (AQP4; at 10 μM) read?
Answer: The value was 110% activation at 10.
